Source: patent US20010036955A1, “Method of inhibiting angiogenesis” (Genentech, Inc., priority 1998, published 2001)

What was measured:
Format in all cases: cell-based, human
[1] = tested on: MMP-2 mRNA; experiment: Real time RT-PCR (Taqman) assay in HUVEC, Example 7; details: 10 μM; 24 h; PMA or PMA with bFGF and VEGF
Experimental: (§1) Total RNA was extracted from HUVEC cultured in 3-D type I collagen gels for various times in 1× basal medium supplemented with 40 ng/ml bFGF, 40 ng/ml VEGF, […] PMA or the combination of PMA (80 nM), bFGF and VEGF (40 ng/mil each). […] For all mRNAs evaluated a sample of total RNA (100 ng) was added to a 50 μl RT-PCR reaction mixture according to the manufacturer's protocol (Roche Molecular Systems, Inc., Branchburg, N.J.). The thermal cycling conditions included 1 cycle at 48° C. for 30 min, 1 cycle at 95° C. for 10 min, 40 cycles at 95° C. for 15 s, at 60° C. for 1 min, and finally hold at 25° C. for 2 min. Standard curves for expression of each gene were generated by serial dilution of the total RNA isolated from U937 cells. […] Therefore, the relative mRNA expression of each gene was normalized to the level of GAPDH in the same RNA preparation.

[2] = tested on: MMP-3 mRNA; experiment: as above
Experimental: as §1

[3] = tested on: MMP-9 mRNA; experiment: as above; details: 10 μM; 24 h; PMA or PMA with bFGF and VEGF
Experimental: as §1

[4] = tested on: TIMP-2 mRNA; experiment: as above; details: 10 μM; bFGF, VEGF and PMA; at 4 h
Experimental: as §1

[5] = tested on: TIMP-1 mRNA; experiment: as above; details: 10 μM; bFGF, VEGF and PMA; at 4 h or 24 h
Experimental: as §1

[6] = tested on: HUVEC tube formation; experiment: Endothelial tube assay of Example 7 (average tube length, 3-D type I collagen gels); details: 10 μM; 24 h; 3-D collagen gels
Experimental: Collagen gels were formed by mixing together ice-cold gelation solution (IOX M199, H2O, 0.53M NaHCO3, 200 mM L-glutamine, type I collagen, 0.1M NaOH, 100:27.2:50:10:750:62.5 by volume) and cells in 1× basal medium (see below) at a concentration of 3×10^6 cells/ml at a ratio of 4 volumes gelation solution: 1 volume of cells (18). After gelation at 37° C. for 30 min, the gels were overlaid with 1× basal medium consisting of M199 supplemented with […], 1× ITS, 2 mM L-glutamine, […] ascorbic acid, 26.5 mM NaHCO3, 100 U/ml penicillin and 100 U/ml streptomycin supplemented with 40 ng/ml bFGF, 40 ng/ml VEGF, 80 nM PMA or the combination of PMA (80 nM), bFGF and VEGF (40 ng/ml each). All drugs were added to the 1× basal medium immediately after gelation. To quantify tube formation, the average tube length was determined by measuring total tube length (long axis) in three consecutive layers of a low power (10×) field using Openlab software (Improvision Inc, England). Each layer was separated by 100 μm.

[7] = tested on: HUVEC tube formation; experiment: Endothelial tube assay (number of tubes, three-dimensional collagen gels)
Experimental: In this model, endothelial cells are suspended in a three-dimensional collagen lattice of type I collagen and undergo rapid morphogenesis. Within 4 hr numerous vacuoles are observed in the majority of endothelial cells; at 24 hr the formation of tube-like structures can be observed and at 48 hr an interconnected network of tube-like structures is observed.
Collagen gels were formed by mixing together ice-cold gelatin solution (10× M199, H2O, 0.53M NaHCO3, 200 mM L-glutamine, type I collagen, 0.1M NaOH, 100:27.2:50:10:750:62.5 by volume) and cells in 1× basal medium at a concentration of 3×10^6 cells/ml at a ratio of 4 volumes gelatin solution: 1 volume of cells. After gelation at 37 for 30 min, the gels were overlaid with IX basal medium consisting of M199 supplemented with 1%FBS, 1× ITS, 2 mM L-glutamine, 50 μg/ml ascorbic acid, 26.5 mM NaHCO3, 100 U/ml penicillin and 100 U/mil streptomycin supplemented with 40 ng/ml BFGF, 40 ng/ml VEGF and 80 nM phorbol myristate acetate (PMA). All drugs were added to the IX basal medium immediately after gelation. To quantitate tube formation, the number of tubes per high power (20× field) was determined 48 hr after addition of the basal medium Five independent fields separated by 100 μm optical sections were assessed for each well. Cytotoxicity was assessed using an XTT kit from Boehringer Mannheim (Indianapolis, Ind.).

## CCCCC/C=C/C=C1/C(=O)C=CC1C/C=C\CCCC(=O)O (stereo not drawn) [15d-PGJ2, 15-deoxy-delta^12,14-PGJ2]
[1]
  MMP-2 mRNA levels: significant suppression
[2]; HUVEC cultured with combination of bFGF, VEGF and PMA at 24 h
  MMP-3 mRNA levels: increased
[2]; PMA-treated group
  MMP-3 mRNA expression: no effect
[3]
  MMP-9 mRNA levels: significant suppression
[4]
  TIMP-2 mRNA levels compared to the vehicle treated group: reduced
[5]
  expression of TIMP-1: did not increase
[6]
  PMA or PMA in combination with bFGF and VEGF induced HUVEC tube formation: blocked
[7]; 10 μM, 48 hr
  effect on tube formation (FIG. 1B): inhibitory effects
[7]; HUVEC in collagen gels with bFGF, VEGF and PMA, tubes counted at 48 hr, read-out: inhibition of tube formation, IC50
  IC50: 2800 nM
